According to patent publication US12178825B2, “Method and compositions for forming a copper-containing complex and uses thereof” (COLD SPRING HARBOR LABORATORY, priority 2017, dated 2024):
Entries after “also recorded” stand apart in the source; their conditions may differ.

What was measured:
TX mice [1] = assay: Survival and tolerability in the TX mouse model of Wilson's disease; type: in vivo
Procedure: (§1) C3He-Atp7b^tx-j were obtained from the Jackson laboratory. All animal experiments were performed according to protocols approved by the Institutional Animal Use and Care Committee of Cold Spring Harbor laboratory. Mice were injected intraperitoneally (i.p.) with vehicle, or administered DPM-1001 intraperitoneally or orally at 5 mg/kg once every third day, for over a year. At the end of the study animals were euthanized and tissue samples were removed for biochemical studies.

JAK2 = assay: Leptin signaling in hypothalamus of treated mice; type: in vivo; details: leptin-induced
Procedure: (§2) Technology (JAK2, catalog 3230, clone D2E12; p-T308 AKT (catalog 13038, clone D25E6); AKT (catalog 4691, clone C67E7) and Sigma-Aldrich (actin, catalog A2228, clone AC-74).
(§3) All protocols were approved by the Institutional Animal Use and Care Committee of Cold Spring Harbor laboratory. 10 week-old male mice fed chow diet or high-fat diet (D12492) were acclimatized for 10 days under standard conditions before experiments. Mice were injected intraperitoneally (i.p.) once daily with vehicle, 5 mg/kg of DPM-1001 intraperitoneally or orally for 50 days. Mice were euthanized after 6 h of fasting, and serum samples were collected to measure the metabolic parameters and tissue samples were collected for studying changes in signaling.

[2] = tested on: triple-negative breast cancer (TNBC) cell lines; assay: MTT cell survival, triple-negative breast cancer cell lines; type: cell-based
Procedure: The MTT assay was used to evaluate cell survival in the absence and presence of different compounds. The thiazolyl blue tetrazolium bromide (MTT) was dissolved in phosphate buffered saline (PBS) at a concentration of 5 mg/ml, filtered, and stored at 4° C. About 10,000 cells were seeded into a 96-well plate and cultured in growth medium containing serum. After 24 hours, cells were treated with the indicated concentrations of DPM-1001 or DPM-1003 (0-100 uM) for 2 hrs. Following which 20 μl MTT was added into each well. An ELISA plate reader (Biotek, Winooski, Vermont, USA) was used to measure the optical density at 490 nm.

TX mice [3] = assay: Tissue and fecal copper levels (ICP-MS, rhodanine staining); type: in vivo, mouse
Procedure: as §1
Tissue samples from wild-type or TX mice treated with saline, DPM-1001 or tetrathiomolybdate was washed three times with PBS containing 1 mM EDTA (to remove nonspecifically bound copper). Then, 215 μl of concentrated nitric acid (BDH Aristar Ultra) was added to each sample and incubated overnight. Samples were boiled at 95° C. for 1 h. and approximately 150 μl of each sample was further diluted in 2 ml 2% nitric acid (made freshly from concentrated nitric acid and Milli-Q water) Samples were analyzed on a Thermo Fisher iCAP Qc ICP mass spectrometer in kinetic energy discrimination (KED) mode against a calibration curve of known copper and phosphorus concentrations, with Ga (20 μg/l, Inorganic Ventures) as an internal standard, Each experiment was carried out twice and each condition was repeated in at least triplicate.
Liver tissues from wild-type and TX mice from untreated and DPM-1001-treated mice were sectioned and stained with H&E or rhodanine. Whole-slide, digitized images of H&E-stained tissue were captured using the Aperio ScanScope XT automated scanning system (Vista, CA). Image J software was used to quantitate rhodanine staining.

MDA-MB-231 and SUM159 = assay: Immunoblot of phospho-Erk; type: cell-based; details: DPM-1001 1-2 μM
From the text: Equal quantities of lysates were isolated from indicated cell lines and then resolved by SDS-PAGE and immunoblotted with one of the following primary antibodies: mouse anti-MEK1/2, rabbit anti-p-PAK1, rabbit anti-PAK1, rabbit anti-ERK1/2, rabbit anti-phospho(Ser 217/221)-MEK1/2, rabbit anti-phospho(Thr 202/Tyr 204)-ERK1/2, rabbit anti-phospho (Ser 338)-c-RAF, rabbit anti-RAF, rabbit anti-phospho (Ser 112)-BAD and rabbit anti-BAD (Cell Signaling Technology), mouse anti-β-actin (Sigma), followed by detection with one of the following horseradish peroxidase-conjugated secondary antibodies: goat anti-rabbit IgG, goat anti-mouse IgG (Invitrogen), mouse anti-rabbit light-chain-specific IgG (Jackson ImmunoResearch Laboratories) using enhanced chemiluminescence (ECL; GE Healthcare) or SuperSignal West Femto Chemiluminescent substrate (Pierce) detection reagents.

[4] = ESI-MS analysis of complex formation with zinc salts; type: binding; details: ZnSO4 or Zn(NO3)2, ESI-MS
Procedure: Eight equivalents of M(NO3)2·xH2O or MSO4·xH2O (M=Cu, Zn) were reacted with 1 eq. of DPM-1001 (1 mM in H2O). The reaction solutions were stirred at RT, 40° C. and 80° C. for 2 h. Mass spectra were recorded on a Bruker Esquire 6000 HCT quadrupole ion trap instrument (Bruker Daltonik GmbH, Leipzig, Germany), equipped with an electrospray ionization (ESI) source. Generation of the molecular formula of the DPM-1001/Cu(II) species and the comparison between the theoretical (simulated) and the measured isotopic patterns was performed using the DataAnalysis 4.0 software (Bruker).

TNBC cells = assay: Annexin V and propidium iodide staining; type: cell-based
Procedure: Cells (1×10^5) were plated in six-well plates in growth medium. The cells were untreated or treated with DPM-1001 (2 μM). Following which, cells were washed with cold PBS twice and resuspended in 0.1 M Hepes/NaOH (pH 7.4), 1.4 M NaCl, 25 mM CaCl2). To the cell suspension 5 μl of fluorescein isothiocynate (FITC)-conjugated annexin V (0.1 mg/ml) and propidium iodide (1 mg/ml) were added and the samples were incubated in dark for 30 minutes at room temperature. The samples were analyzed by flow cytometry (Becton Dickinson LSRII Cell Analyzer).

[5] = tested on: insulin receptor β subunit, AKT; assay: Insulin signaling in liver of treated mice; type: in vivo
From the text: The antibodies used in the study were purchased from: Upstate Biotechnology (pTyr, catalog 05-321, clone 4G10); Invitrogen (pY1162/1163-IR-β, catalog 700393, clone 97H9L7); Santa Cruz Biotechnology Inc. (IR-β, catalog sc-711, clone C711); Cell Signaling
as §2, §3

[6] = Glucose tolerance and insulin tolerance tests; type: in vivo, C57Bl6/J mice; details: HFD-fed mice, orally or intraperitoneally
Procedure: as §3
Glucose in tail blood was measured using a glucometer (One-Touch Basic; Lifescan, CA). For glucose tolerance tests (GTTs), mice were fasted for 10 hours and then injected 20% D-glucose (2 mg/g body weight) and the blood glucose was monitored immediately before and at 15, 30, 60 and 120 mins following the injection. For insulin tolerance tests (ITTs), 4-h fasted animals were given insulin (0.75 mU/g) and blood glucose was measured immediately before and at 30, 60 and 120 minutes postinjection. Statistical analysis was performed using ANOVA for both GTT and ITT.

COC(=O)CCC(C)C1CCC2C3C(O)CC4CC(NCCCCNCc5ccccn5)CCC4(C)C3CCC12C (stereo not shown) [DPM-1001]
longevity of TX mice (in words) (TX mice [1]; 5 mg/kg, every third day): prolongs their life | survival at one year of age (TX mice [1]; TX mice): 90% | survival at one year of age (TX mice [1]; wild-type mice): 100% | toxic side-effects of prolonged treatment (TX mice [1]; wild-type or TX mice): did not have overt toxic side-effects | phosphorylation of JAK2 (JAK2): increased leptin-induced JAK2 phosphorylation; also recorded: enhanced phosphorylation of JAK2 | survival of triple-negative breast cancer cells [2]: inhibited survival; also recorded: potently inhibits survival | copper levels in feces (TX mice [3]; TX mice): dramatically elevated | rhodanine staining of liver (TX mice [3]; TX mice): no obvious staining for rhodanine | copper levels in liver and brain (TX mice [3]; TX mice, ICP-MS): inhibits copper accumulation in liver and brain; also recorded: lowered the levels of copper in both tissues; also recorded: as effective as tetrathiomolybdate in removing copper from the liver and brain | copper levels in feces (TX mice [3]; TX mice, listed as DMP-1001): elevated copper levels in feces | copper levels in kidney (TX mice [3]; wild-type and TX mice, ICP-MS): does not promote accumulation of copper in the kidney; also recorded: no significant differences | rhodanine staining of liver (TX mice [3]; wild-type mice): No signal was detected | levels of phospho-Erk (MDA-MB-231 and SUM159): high levels of reduction; also recorded: greater than that seen with 50 μM of bathocuproine disulfonate or 25 μM of TTM | complexation with Zn(II) [4]: no complexation | mechanism of reduced cell survival (TNBC cells): due to promoting death of these cells | AKT phosphorylation [5]: phosphorylation of AKT; also recorded: enhanced AKT phosphorylation | tyrosine phosphorylation of insulin receptor β subunit ([5]; insulin-stimulated, orally or intraperitoneally): increased insulin-stimulated insulin receptor phosphorylation; also recorded: marked increase in β-subunit phosphorylation | glucose tolerance ([6]; D-glucose 2 mg/g): lower rise in blood glucose levels; also recorded: improved glucose tolerance | insulin sensitivity (insulin tolerance test) ([6]; insulin 0.75 mU/g): enhanced the effect of insulin to reduce blood glucose levels; also recorded: improved
